Assay results: US9700637B2, “Reaction-based fluorescent probes for detecting zinc” (Massachusetts Institute of Technology, priority 2013, dated 2017)

Assays:
[1] = Octanol/aqueous buffer partition coefficient (modified shake-flask); assay type: physicochemical; conditions: octanol/water, buffered at pH 7 with 10 mM Tris
Excerpt: To understand better the limitations of TPP in directing fluorophores to mitochondria, we prepared two additional TPP-derivatives, one based on 6-carboxyfluorescein (FL-TPP) and one on coumarin 343 (C343-TPP). […] To test this hypothesis, we conducted live cell fluorescence imaging experiments with FL-TPP. […] Not only did FL-TPP fail to accumulate in mitochondria, it was cell-impermeable under our imaging conditions. In contrast, the cationic C343-TPP strongly colocalized with MitoTracker Red in live HeLa cells (Pearson's r=0.72±0.02). To quantify the effect of hydrophobicity in mitochondrial-targeting, we measured the octanol/aqueous buffer partition coefficient (log P) for our TPP constructs and two MitoTracker dyes. We then tabulated the log P, charge of the predominate species in solution at physiological pH, and cellular localization for each dye (Table 1). […] Along with cationic charge, a minimum level of lipophilicity must be reached in order to evade endo/lysosomal sequestration and enable effective mitochondrial targeting.

[2] = Charge of predominate species in solution at physiological pH; assay type: physicochemical; conditions: physiological pH = 7.4
HeLa cells = test: Live cell fluorescence imaging: localization, co-localization and uptake; assay type: cell-based; conditions: fluorescence microscopy, live HeLa cells (Table 1)
Description: FIG. 6 depicts live cell imaging of HeLa cells. 500 nM mitotracker Red was bath-applied along with 1 μM DA-ZP1-TPP for 30 min at 37° C. and 5% CO2. After exposure to 25 μM 1:2 zinc:pyrithione, fluorescent images were acquired and the co-localization of the two sensors was assessed. The calculated Pearson's correlation coefficient (r) was r=0.581±0.097 (n=9), which represents the average of 9 ROIs over three independent plates.
FIG. 14 depicts live cell imaging of HeLa cells. 1 μM Lysotracker Red was bath-applied along with 2 μM ZP1-TPP. The calculated Pearson's correlation coefficient (r) was r=0.45±0.15, which represents the average of 9 ROIs over three independent plates.
FIG. 24 depicts fluorescence images of live HeLa cells. HeLa cells were pretreated with a 1 μM solution of DA-ZP1-TPP in dye- and serum-free medium for 30 min (37° C., 5% CO2). […] The signal from MitoTracker Red (c) correlates well with the signal from the zinc-bound sensor (d). Pearson's r=0.64±0.1 (n=18).
FIG. 27 depicts deconvoluted fluorescence microscopy images of live HeLa cells pretreated with ZP1-R9 (5 μM) or DA-ZP1-R9 (2.5 μM) and the indicated organelle stain. Top, ZP1-R9: (a) Differential interference contrast (DIC) image, (b) signal from ZP1-R9, (c) signal from LysoTracker Red, (d) overlay of (b) and (c). Pearson's r=0.42±0.16 (n=8). Bottom, DA-ZP1-R9: (e) DIC, (f) signal from DA-ZP1-R9 after treatment with 25 μM ZnPT, (g) signal from Hoechst 33258, (h) overlay of (f) and (g). Scale bar=25 μm.
FIG. 29 depicts deconvoluted fluorescence microscopy images of live HeLa cells pretreated with 1 μM DA-ZP1-R9 and 100 nM Dextran Red. (a) Differential interference contrast (DIC), (b) signal from DA-ZP1-R9 after addition of 25 μM ZnPT (c) signal from Dextran Red, (d) overlay of (b) and (c). Pearson's r=0.55±0.12 (n=11). Scale bar=25 μm.
FIG. 31 depicts deconvoluted fluorescence microscopy images of ZP1-(Fxr)3 and DA-ZP1-r(Fxr)3 in live HeLa cells. Top, cells pretreated with medium containing 2.5 μM of ZP1-(Fxr)3: (a) Differential interference contrast (DIC) image, (b) signal from ZP1-(Fxr)3, (c) signal from Dextran Red, (d) overlay of (b) and (c). Pearson's r=0.71±0.07. Bottom, cells pretreated with 1 μM DA-ZP1-r(Fxr)3: (e) DIC, (f) signal from DA-ZP1-r(Fx)3 after treatment with 25 μM ZnPT, (g) signal from MitoTracker Red, (h) overlay of (f) and (g). Pearson's r=0.41±0.09. Scale bar=25 μm.
FIG. 33 depicts deconvoluted fluorescence microscopy images of DCF-r(Fxr)3 and DA-DCF-r(Fxr)3 in live HeLa cells. Top, cells pretreated with 5 μM DCF-r(Fxr)3 and 500 nM MitoTracker Red for 30 min. (a) differential contrast image (DIC), (b) signal from DCF-r(Fxr)3, (c) signal from MitoTracker Red. Bottom, cells pretreated with 5 μM DA-DCF-r(Fxr)3 and 500 nM MitoTracker Red for 30 min. (d) DIC, (e) signal from DCF-r(Fxr)3, (f) signal from MitoTracker Red. The global Pearson's r=0.57±0.16 (n=37). Cells with high levels of DA-DCF-r(Fxr)3 (e, red outline) have a higher Pearson's r=0.83±0.08 (n=10). Scale bar=25 μm.
We used HeLa cells as a model system to evaluate the ability of DA-ZP1-TPP to target mitochondria and respond to changes in intracellular zinc levels. […] Over a two-hour period, the fluorescence intensity from the sensor remained constant, implying that the acetylated form is stable against intracellular esterases (FIG. 24e). […] Addition of 100 μM TPEN attenuated the fluorescence signal by ˜2.4-fold (FIG. 24f). […]

| log P [1] | Charge of the predominate species in solution [2] | SMILES | Localization (HeLa cells) |
| --- | --- | --- | --- |
| 0.74±0.18 | +1 | CC(=O)Oc1c(Cl)cc2c(c1CN(Cc1ccccn1)Cc1ccccn1)Oc1c(cc(Cl)c(OC(C)=O)c1CN(Cc1ccccn1)Cc1ccccn1)C21OC(=O)c2ccc(C(=O)NCC[P+](c3ccccc3)(c3ccccc3)c3ccccc3)cc21 [DA-ZP1-TPP] | Mitochondria |
| −0.11 ± 0.01 | Zwitterion | O=C(NCC[P+](c1ccccc1)(c1ccccc1)c1ccccc1)c1ccc2c(c1)C1(OC2=O)c2cc(Cl)c(O)c(CN(Cc3ccccn3)Cc3ccccn3)c2Oc2c1cc(Cl)c(O)c2CN(Cc1ccccn1)Cc1ccccn1 [ZP1-TPP] | Endo/lysosome |
